Experiments:
POLE = assay: Titration nHU, Western blot, endogenous POLE in Jurkat extract; assay type: binding, human; conditions: titration nHU, Jurkat extract
Source text: To identify the partners of NPF motifs, we used the native holdup (nHU) assay that was recently developed by our team (Fig. 1B). The holdup approach has been extensively used to determine equilibrium dissociation constants of transient interactions mediated by PDZ and SH3 domains, 14-3-3, and human papilloma virus E6 proteins, and even nucleic acid-protein interactions[7],[30]–[35]. In the nHU experiments, a purified bait molecule, or a control compound, is immobilized on a resin at high concentration (typically 10 μM, or higher) and these resin stocks are subsequently mixed with dilute cell extracts. After a relatively long incubation, i.e., 2 h at 4 °C, the liquid phase is separated by centrifugation. This liquid phase contains the unbound prey molecules at near binding equilibrium that can be quantified using selective and quantitative analytical approaches, such as mass spectrometry. Therefore, proteins that interact with the bait molecule will appear to be depleted in the solvent phase and by measuring its relative concentration compared to the control nHU experiment, the degree of binding (θ) can be determined that can be converted to apparent steady-state dissociation constants, according to:1 θ=1−Ifree/Itot=Cbait/Cbait+Kapp where Itot and Ifree are the measured total and bait-depleted equilibrium mass spectrometry total ion intensities of prey proteins, Cbait is the bait molecule concentration and Kapp is the apparent dissociation constant.
Jurkat E6.1 cells (ECACC #88042803, RRID: CVCL_0367) were grown in RPMI (Gibco) medium completed with 10% FBS (Gibco BRL) and 40 μg/ml gentamicin (Gibco/Life Technology). To prepare total cell extracts, Jurkat cells were seeded onto T-175 flasks and grew until 3 × 10^6 cells/ml confluency. Cells were collected by 1000 g x 5 min centrifugation, washed with PBS and then lysed in ice-cold lysis buffer (Hepes-KOH pH 7.5 50 mM, NaCl 150 mM, Triton X-100 1%, cOmplete EDTA-free protease inhibitor cocktail 5x, TCEP 5 mM, glycerol 10%).
Cell suspensions were sonicated 4×20 sec with 1 sec long pulse on ice, then incubated rotating at 4 °C for 30 min. The lysates were centrifuged at 12,000 rpm 4 °C for 20 min and supernatant was kept. Total protein concentration was measured by standard Bradford method (Bio-Rad Protein Assay Dye Reagent #5000006) using a BSA calibration curve (MP Biomedicals #160069, diluted in lysis buffer) on a Bio-Rad SmartSpec 3000 spectrophotometer instrument.
Titration holdup experiments were carried out as described above using 25 μl saturated resins prepared. Briefly, we mixed control, or bait-saturated resins at various proportions by keeping the total resin amount and resin-analyte ratio constant during the experiment (for 25 μl we used 100 μl cell extract as analyte). In titration experiments with protein baits, bait concentration was determined as described above for the saturated resin stocks. Experiments were carried out at 4 °C for 2 h and recovered supernatants were subjected to western blot or dot blot analysis.
For Western blot, samples were mixed with 4x Laemmli Sample Buffer in 3:1 ratio. Equal amounts of samples were loaded on 6-10% acrylamide-gels (generally 16 μg). Transfer was done into PVDF membranes using a Trans-Blot Turbo Transfer System and Trans-Blot Turbo RTA Transfer Kit (BioRad, #1704275). For Dot blot, nHU samples were directly loaded on Nitrocellulose membranes using 48 Sample vacuum manifold (Cleaver Scientific) following the manufacturer’s recommendations.
After 1 h of blocking in 5% milk, membranes were incubated overnight at 4 °C with primary antibodies in 5% milk-TBS-Tween.

PPP2R2A = target: T1, PPP2R2A (Homo sapiens, UniProt P63151); assay: nHU-MS peptide bait, prey PPP2R2A; conditions: FigureS2 Volcano
T1 sequence (P63151 1-447): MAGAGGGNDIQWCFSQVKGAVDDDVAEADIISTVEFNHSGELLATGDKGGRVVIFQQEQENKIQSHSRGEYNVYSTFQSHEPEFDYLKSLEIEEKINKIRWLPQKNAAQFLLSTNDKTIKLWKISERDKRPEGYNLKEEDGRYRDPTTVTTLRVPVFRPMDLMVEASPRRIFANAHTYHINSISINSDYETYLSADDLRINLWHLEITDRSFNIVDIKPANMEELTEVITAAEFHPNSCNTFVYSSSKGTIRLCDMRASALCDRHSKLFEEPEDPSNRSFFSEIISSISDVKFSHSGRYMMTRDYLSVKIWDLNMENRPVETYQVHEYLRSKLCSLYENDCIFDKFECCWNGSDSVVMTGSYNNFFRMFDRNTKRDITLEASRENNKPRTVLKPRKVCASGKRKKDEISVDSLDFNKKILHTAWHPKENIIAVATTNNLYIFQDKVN

TSETSK [SYNJ1]
weaker POLE binding than the DONSON motif (POLE): ~ 6 fold | -log10P (PPP2R2A): 6.763 | log2FC (PPP2R2A): -0.4164

Source: PMC12808100, “The non-catalytic DNA polymerase ε subunit is an NPF motif recognition protein” (Nature Communications, 2025)
